4 compounds from publication PMC8550792, “Evolution of kinase polypharmacology across HSP90 drug discovery” (Cell Chemical Biology, 2021) can be followed below.

Molecules are shown by their SMILES.

Holding throughout (assay): biochemical
What all share (type): biochemical

The target of test [1] is T1, 382 unique human kinases (Homo sapiens, UniProt O96017).
T1 construct: purchased Reaction Biology (HotSpot contract assay)
The conditions noted are these: kinase CHK2, compound 10 uM; for remaining activity at 10 µM: read-out: % Enzyme Activity (relative to DMSO controls).

Test [2] has as its target T2, 382 unique human kinases (Homo sapiens, UniProt Q9UL54).
T2 construct: purchased Reaction Biology (HotSpot contract assay)
T2 sequence (Q9UL54 1-1235): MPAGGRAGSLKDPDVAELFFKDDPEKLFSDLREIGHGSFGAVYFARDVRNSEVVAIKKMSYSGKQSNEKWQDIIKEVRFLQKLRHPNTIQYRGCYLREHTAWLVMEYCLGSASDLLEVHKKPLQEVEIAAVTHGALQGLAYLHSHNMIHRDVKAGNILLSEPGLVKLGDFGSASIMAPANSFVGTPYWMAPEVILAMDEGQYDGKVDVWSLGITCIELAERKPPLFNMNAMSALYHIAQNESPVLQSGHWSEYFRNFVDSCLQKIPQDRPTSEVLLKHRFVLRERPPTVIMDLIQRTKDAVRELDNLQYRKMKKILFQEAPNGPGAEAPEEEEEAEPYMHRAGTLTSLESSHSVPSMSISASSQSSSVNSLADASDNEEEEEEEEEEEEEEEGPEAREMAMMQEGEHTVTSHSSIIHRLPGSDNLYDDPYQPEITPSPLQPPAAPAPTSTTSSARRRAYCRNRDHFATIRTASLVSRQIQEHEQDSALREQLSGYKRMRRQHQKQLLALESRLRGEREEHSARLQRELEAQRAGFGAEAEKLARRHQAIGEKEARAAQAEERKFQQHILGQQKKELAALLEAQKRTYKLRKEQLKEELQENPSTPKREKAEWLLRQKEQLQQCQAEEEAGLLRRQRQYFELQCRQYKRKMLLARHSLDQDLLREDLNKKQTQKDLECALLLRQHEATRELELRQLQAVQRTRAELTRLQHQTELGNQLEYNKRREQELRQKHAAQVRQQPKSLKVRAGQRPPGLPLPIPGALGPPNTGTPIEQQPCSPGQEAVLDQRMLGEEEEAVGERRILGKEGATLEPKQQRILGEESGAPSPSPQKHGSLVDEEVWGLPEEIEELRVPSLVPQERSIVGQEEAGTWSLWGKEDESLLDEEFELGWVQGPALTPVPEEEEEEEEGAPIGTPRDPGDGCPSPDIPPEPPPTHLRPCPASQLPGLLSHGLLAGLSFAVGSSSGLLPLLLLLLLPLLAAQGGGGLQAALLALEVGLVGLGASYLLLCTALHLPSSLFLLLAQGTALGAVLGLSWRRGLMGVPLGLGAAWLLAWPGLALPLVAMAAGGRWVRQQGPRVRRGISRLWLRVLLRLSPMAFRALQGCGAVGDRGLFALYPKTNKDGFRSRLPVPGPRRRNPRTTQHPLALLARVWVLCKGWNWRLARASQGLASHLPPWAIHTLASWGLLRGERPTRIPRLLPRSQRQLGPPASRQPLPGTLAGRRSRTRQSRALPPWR
As to conditions: TAOK2/TAO1, [ATP] 30 µM, compound 10 uM; for remaining activity at 10 µM: read-out: % Enzyme Activity (relative to DMSO controls).

Test [3] addresses T3, 382 unique human kinases (Homo sapiens, UniProt Q9NYL2).
T3 construct: purchased Reaction Biology (HotSpot contract assay)
The conditions noted are these: ZAK/MLTK, [ATP] 50 µM, compound 10 uM; for remaining activity at 10 µM: read-out: % Enzyme Activity (relative to DMSO controls).

Test [4] deals with T4, 382 unique human kinases (Homo sapiens, UniProt P08581, Y1230C).
T4 construct: purchased Reaction Biology (HotSpot contract assay)
The conditions noted are these: c-MET (Y1230C), 10 uM; for remaining activity at 10 µM: read-out: % Enzyme Activity (relative to DMSO controls).

Test [5] deals with T5, 382 unique human kinases (Homo sapiens, UniProt Q96PY6).
T5 construct: purchased Reaction Biology (HotSpot contract assay)
T5 sequence (Q96PY6 1-1258): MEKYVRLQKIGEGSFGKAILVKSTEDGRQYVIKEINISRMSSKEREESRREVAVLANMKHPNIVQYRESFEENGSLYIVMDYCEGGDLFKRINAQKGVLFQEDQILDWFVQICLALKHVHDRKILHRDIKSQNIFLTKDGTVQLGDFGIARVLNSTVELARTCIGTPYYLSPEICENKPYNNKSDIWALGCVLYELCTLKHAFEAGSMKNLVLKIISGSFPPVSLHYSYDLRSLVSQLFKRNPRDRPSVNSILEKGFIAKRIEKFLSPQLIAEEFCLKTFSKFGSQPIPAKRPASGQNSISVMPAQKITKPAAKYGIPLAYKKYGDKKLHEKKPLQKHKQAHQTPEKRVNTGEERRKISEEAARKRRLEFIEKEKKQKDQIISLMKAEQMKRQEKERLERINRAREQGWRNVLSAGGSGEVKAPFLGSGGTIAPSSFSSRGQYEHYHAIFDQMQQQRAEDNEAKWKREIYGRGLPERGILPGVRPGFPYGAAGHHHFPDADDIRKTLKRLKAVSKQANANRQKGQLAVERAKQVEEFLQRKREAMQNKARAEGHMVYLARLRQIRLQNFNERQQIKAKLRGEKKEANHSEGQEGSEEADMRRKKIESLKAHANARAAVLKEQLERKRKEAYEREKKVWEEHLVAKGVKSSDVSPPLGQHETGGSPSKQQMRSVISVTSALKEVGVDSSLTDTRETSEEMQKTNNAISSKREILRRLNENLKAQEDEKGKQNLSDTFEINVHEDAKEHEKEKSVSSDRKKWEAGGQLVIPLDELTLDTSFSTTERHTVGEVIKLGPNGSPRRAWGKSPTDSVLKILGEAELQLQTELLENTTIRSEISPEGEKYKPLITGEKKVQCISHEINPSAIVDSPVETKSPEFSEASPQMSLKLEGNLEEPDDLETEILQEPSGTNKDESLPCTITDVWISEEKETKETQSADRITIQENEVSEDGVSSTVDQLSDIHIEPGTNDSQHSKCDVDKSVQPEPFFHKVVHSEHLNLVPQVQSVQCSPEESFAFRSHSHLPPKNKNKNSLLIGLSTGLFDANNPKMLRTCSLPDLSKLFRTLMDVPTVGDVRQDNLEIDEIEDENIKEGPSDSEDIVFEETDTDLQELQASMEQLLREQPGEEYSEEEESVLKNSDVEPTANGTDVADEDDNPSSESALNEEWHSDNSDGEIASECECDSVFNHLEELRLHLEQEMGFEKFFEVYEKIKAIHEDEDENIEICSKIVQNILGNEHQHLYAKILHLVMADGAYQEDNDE
As to conditions: NEK1, 10 uM; for remaining activity at 10 µM: read-out: % Enzyme Activity (relative to DMSO controls).

Test [6] concerns the target T6, 382 unique human kinases (Homo sapiens, UniProt P00533, G719S).
T6 construct: purchased Reaction Biology (HotSpot contract assay)
The conditions noted are these: EGFR (G719S), 10 uM; for remaining activity at 10 µM: read-out: % Enzyme Activity (relative to DMSO controls).

Test [7] addresses T7, 382 unique human kinases (Homo sapiens, UniProt P00519, F317I).
T7 construct: purchased Reaction Biology (HotSpot contract assay)
As to conditions: ABL1 (F317I), [ATP] 5 µM, compound 10 uM; for remaining activity at 10 µM: read-out: % Enzyme Activity (relative to DMSO controls).

T1 sequence (O96017 whole entry): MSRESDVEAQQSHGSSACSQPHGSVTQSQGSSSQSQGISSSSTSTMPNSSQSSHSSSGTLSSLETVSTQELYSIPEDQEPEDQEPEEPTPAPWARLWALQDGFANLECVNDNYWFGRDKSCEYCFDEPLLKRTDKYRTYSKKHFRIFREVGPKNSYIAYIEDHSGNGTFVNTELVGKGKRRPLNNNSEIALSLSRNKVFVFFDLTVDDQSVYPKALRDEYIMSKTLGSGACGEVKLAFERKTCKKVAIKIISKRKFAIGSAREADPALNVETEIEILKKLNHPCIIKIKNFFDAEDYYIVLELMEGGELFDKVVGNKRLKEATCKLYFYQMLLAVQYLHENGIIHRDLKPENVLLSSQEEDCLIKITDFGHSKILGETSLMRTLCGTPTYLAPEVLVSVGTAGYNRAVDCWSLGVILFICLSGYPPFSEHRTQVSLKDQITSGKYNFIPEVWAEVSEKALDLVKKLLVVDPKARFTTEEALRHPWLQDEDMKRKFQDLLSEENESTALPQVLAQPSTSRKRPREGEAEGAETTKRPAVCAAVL
T7 sequence (P00519 whole entry F317I): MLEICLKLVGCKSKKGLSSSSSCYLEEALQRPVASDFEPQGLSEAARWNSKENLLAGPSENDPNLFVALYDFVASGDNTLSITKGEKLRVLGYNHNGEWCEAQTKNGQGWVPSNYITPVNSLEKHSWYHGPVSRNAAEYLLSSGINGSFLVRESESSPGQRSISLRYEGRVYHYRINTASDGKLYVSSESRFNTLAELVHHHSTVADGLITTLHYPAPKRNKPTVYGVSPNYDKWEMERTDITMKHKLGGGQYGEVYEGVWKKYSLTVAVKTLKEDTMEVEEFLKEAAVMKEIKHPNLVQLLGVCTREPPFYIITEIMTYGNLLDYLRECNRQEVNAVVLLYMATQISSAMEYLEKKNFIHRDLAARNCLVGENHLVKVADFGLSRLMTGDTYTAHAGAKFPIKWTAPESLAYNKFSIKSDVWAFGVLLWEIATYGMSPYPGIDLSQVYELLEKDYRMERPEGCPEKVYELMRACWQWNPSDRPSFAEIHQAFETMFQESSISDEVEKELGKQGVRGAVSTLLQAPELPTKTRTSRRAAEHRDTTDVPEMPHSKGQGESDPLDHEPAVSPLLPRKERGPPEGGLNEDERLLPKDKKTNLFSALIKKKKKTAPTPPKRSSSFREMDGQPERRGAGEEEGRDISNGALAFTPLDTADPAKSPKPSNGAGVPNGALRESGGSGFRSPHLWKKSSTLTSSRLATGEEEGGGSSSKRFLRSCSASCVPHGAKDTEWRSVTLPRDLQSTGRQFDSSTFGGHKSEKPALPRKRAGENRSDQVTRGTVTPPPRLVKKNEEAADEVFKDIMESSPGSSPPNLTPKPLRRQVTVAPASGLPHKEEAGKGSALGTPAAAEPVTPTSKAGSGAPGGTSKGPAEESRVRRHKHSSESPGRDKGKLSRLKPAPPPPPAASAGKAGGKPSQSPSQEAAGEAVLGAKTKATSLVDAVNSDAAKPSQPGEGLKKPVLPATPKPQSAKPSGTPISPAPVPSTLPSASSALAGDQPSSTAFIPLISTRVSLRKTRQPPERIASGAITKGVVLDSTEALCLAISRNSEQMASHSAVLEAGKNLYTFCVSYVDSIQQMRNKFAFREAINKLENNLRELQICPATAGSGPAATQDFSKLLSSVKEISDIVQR
T3 sequence (Q9NYL2 whole entry): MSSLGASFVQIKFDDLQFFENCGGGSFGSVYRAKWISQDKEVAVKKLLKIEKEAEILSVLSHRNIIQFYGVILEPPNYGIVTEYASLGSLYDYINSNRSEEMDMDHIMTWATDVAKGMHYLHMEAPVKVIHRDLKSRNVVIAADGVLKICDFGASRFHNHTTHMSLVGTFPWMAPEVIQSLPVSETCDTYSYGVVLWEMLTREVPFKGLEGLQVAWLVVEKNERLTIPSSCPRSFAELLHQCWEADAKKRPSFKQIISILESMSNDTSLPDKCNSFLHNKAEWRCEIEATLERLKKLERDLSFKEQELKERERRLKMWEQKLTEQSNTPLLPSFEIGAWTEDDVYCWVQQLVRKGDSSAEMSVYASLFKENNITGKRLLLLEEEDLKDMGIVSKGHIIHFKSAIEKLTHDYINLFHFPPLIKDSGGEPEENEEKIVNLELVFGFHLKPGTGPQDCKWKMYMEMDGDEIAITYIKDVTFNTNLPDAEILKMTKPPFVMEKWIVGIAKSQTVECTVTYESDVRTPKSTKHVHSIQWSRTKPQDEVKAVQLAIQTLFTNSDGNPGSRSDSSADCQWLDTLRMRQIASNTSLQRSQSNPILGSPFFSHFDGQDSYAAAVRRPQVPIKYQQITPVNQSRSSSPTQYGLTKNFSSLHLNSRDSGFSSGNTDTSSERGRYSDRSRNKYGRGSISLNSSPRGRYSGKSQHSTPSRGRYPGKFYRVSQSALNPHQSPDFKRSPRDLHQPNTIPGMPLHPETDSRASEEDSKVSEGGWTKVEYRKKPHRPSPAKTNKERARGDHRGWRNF

In the case of `CC(C)c1cc(-c2n[nH]c(=O)n2-c2ccc3c(ccn3C)c2)c(O)cc1O` [Ganetespib (STA9090)], the remaining activity at 10 µM at 382 unique human kinases [1] worked out at 84.6%.
For the compound `CC(C)c1cc(-c2n[nH]c(=O)n2-c2ccc3c(ccn3C)c2)c(O)cc1O` [Ganetespib], the remaining activity at 10 µM on 382 unique human kinases [2] came out at 58.9%; at 382 unique human kinases [3], 48.1%; at 382 unique human kinases [4] it was 97%; at 382 unique human kinases [5] it was 95.7%; at 382 unique human kinases [6] it was 99.7%; on 382 unique human kinases [7], 2.88%.
As to `CCNC(=O)c1noc(-c2cc(C(C)C)c(O)cc2O)c1-c1ccc(CN2CCOCC2)cc1` [Luminespib (AUY-922)], on 382 unique human kinases [1], the “% Enzyme Activity (relative to DMSO controls)” value is listed as 102.76% and the remaining activity at 10 µM came out at 104%.
In the case of `CCNC(=O)c1noc(-c2cc(C(C)C)c(O)cc2O)c1-c1ccc(CN2CCOCC2)cc1` [Luminespib], the “% Enzyme Activity (relative to DMSO controls)” value at 382 unique human kinases [2] was 95.89%; on 382 unique human kinases [3], 94.35%; at 382 unique human kinases [4], 102.31%; on 382 unique human kinases [5], 102.76%; on 382 unique human kinases [6] it was 98.84%; on 382 unique human kinases [7] it was 24.59%. Further, the remaining activity at 10 µM was found to be 96% at 382 unique human kinases [2]; 99.3% on 382 unique human kinases [3]; 103% at 382 unique human kinases [4]; 110% on 382 unique human kinases [5]; 99.4% on 382 unique human kinases [6]; 25.7% on 382 unique human kinases [7].
